Data: ChEMBL document CHEMBL5512692, “Colloidal Aggregation Confounds Cell-Based Covid-19 Antiviral Screens” (J Med Chem, 2024)

Tested on: SARS-CoV-2
Test: Antiviral activity against SARS-CoV-2 pseudotyped lentivirus infected in HEK293 cells overexpressing EGFP-fused hACE2 coexpressing mCherry assessed as reduction in virus entry incubated for 40 mins by immunocytochemistry assay
Type: functional, organism-based
Settings: Severe acute respiratory syndrome coronavirus 2, HEK293, 40 min

Structure (SMILES): CC(C)=CCc1c(O)ccc(C(=O)/C=C/c2ccc(O)cc2)c1O [ISOBAVACHALCONE]
- EC50: 51.5 µM

Structure (SMILES): C=C[C@@](C)(/C=C/c1ccc(O)cc1)CCC=C(C)C [BAKUCHIOL]
- EC50: 110 µM
